The test system of experiment [1] is KMS11 (human myeloma cell line). The experiment can be described thus: Cell proliferation assay (CellTiter-Glo), KMS11. Conditions: Homo sapiens, KMS-11; KMS11 cells, cell proliferation; read-out: KMS11-Luc EC50. It counts as cell-based. The method, boiled down:
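KMS11 cells in IMDM with 10% FBS and sodium pyruvate, seeded at 2000 cells/well on assay day. Compound added at 2× to equal volume of cells, incubated 3 days at 37° C. Viability read by CellTiter-Glo luminescence; EC50 derived.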
For orientation: In ATP-based viability assays light output follows the ATP content of the culture.

For the next experiment, the target named is T1, FLT3D835Y kinase (Homo sapiens, UniProt P36888, D835Y).
T1 sequence (P36888 27-993 D835Y): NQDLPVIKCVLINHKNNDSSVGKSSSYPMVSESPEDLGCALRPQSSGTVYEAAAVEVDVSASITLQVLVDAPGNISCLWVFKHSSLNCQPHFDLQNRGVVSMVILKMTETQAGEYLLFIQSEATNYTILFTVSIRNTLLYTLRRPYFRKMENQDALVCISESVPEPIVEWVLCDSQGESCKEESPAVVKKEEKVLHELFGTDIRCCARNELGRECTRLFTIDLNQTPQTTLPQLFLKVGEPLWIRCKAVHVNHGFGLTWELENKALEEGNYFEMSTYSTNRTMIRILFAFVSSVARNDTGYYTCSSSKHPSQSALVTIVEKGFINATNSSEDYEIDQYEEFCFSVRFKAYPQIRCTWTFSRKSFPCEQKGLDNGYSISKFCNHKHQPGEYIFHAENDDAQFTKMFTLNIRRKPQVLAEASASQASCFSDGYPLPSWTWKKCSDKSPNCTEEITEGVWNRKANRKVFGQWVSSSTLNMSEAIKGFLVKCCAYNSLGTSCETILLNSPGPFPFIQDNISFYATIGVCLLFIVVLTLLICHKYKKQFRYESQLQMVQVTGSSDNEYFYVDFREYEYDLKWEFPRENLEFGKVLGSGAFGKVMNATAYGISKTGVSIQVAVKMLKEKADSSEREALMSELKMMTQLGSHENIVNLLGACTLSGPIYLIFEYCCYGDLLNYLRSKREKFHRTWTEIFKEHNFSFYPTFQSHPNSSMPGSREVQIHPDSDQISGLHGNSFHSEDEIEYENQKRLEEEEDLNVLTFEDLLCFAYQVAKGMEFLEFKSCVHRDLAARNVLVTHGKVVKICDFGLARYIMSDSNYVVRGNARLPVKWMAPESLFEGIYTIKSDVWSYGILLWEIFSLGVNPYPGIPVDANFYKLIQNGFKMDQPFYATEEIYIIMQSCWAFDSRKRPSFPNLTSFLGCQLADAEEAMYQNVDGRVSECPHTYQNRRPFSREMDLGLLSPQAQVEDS
Put plainly: FLT3D835Y kinase inhibition assay (LanthaScreen TR-FRET). It counts as biochemical. The following applies: read-out: FLT3 IC50. The protocol:
FLT3D835Y Kinase Inhibition Assay
LanthaScreen™ is the detection of Time-Resolved Fluorescence Resonance Energy Transfer (TR-FRET) using lanthanide chelates to measure interactions between various binding partners. The application of TR-FRET to assay kinase activity was first described by Mathis (1995). A TR-FRET assay was used to measure FLT3D835Y kinase inhibitory activity. The assay panel was run on a Biomek FX liquid handling workstations. To the assay plates containing […] compound or control solutions, 4.5 μL of buffer A (50 mM TRIS-HCl pH 7.4, 2 mM DTT, 0.02% Tween 20, 0.02 mM Na3VO4, H2O nanpure) including a generic concentration of ATP (2 μM f.c.) was added per well, followed by […] of buffer B (4 uM ATP in Buffer A) including a generic concentration of polyEAY (50 nM f.c.), FLT3D835Y kinase, and divalent cations. Final concentration of kinase and cations were: [FLT3D835Y kinase]=5.7 nM, [Mg]=3 mM, [Mn]=3 mM. After 1 hour of incubation the kinase reactions were stopped by the addition of 4.5 μL of stop solution D (50 mM EDTA, 20 mM TRIS-HCl pH 7.4, 0.04% NP-40) immediately followed by 4.5 μL of buffer A (50 mM TRIS-HCl pH 7.4, 2 mM DTT, 0.02% Tween 20, 0.02 mM Na3VO4, H2O nanpure) including the Tb-labeled P-20 antibody to give a total detection volume of […]. After an incubation time of 45 min in the dark, the plates were transferred into the Pherastar fluorescence reader for counting. The effect of compound on the enzymatic activity was obtained from the linear progress curves and determined from one reading (end point measurement).
(In general: Time-resolved FRET reads energy transfer from a long-lived donor to a nearby acceptor.)

Another experiment addresses PIM2 (Homo sapiens, UniProt Q9P1W9). Put plainly: Pim 2 AlphaScreen assay (high ATP). The following applies: read-out: Pim2 IC50. Type of experiment: biochemical. The method, boiled down:
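This is a bead-based AlphaScreen run at high ATP (11-125× Km) with biotin-Bad peptide (100 nM in the substrate mix), in 50 mM Hepes pH 7.5, 5 mM MgCl2, 0.05% BSA, 0.01% Tween-20, 1 mM DTT and 2.5% DMSO final. After ~2 h the reaction was stopped with EDTA. Phospho-peptide was detected overnight with anti-phospho Ser/Thr antibody on Protein A and streptavidin beads, giving IC50.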
(Bead proximity is the source of the signal in Alpha formats.)

Sequence of PIM2 (Q9P1W9 whole entry): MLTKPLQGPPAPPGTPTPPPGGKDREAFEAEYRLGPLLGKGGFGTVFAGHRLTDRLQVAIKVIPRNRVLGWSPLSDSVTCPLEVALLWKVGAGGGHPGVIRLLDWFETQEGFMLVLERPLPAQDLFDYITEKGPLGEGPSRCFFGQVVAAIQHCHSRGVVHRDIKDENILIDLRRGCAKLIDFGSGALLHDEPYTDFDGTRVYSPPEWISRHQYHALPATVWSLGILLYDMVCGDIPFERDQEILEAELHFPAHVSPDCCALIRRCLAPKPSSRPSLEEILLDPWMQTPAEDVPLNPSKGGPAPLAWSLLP

As to `Nc1ncc(-c2ccccc2)nc1C(=O)Nc1cnccc1[C@H]1C[C@@H](N)[C@@]2(O)CCCC[C@H]2O1` [Example 197, 3-amino-N-(4-((2R,4R,4aS,8aR)-4-amino-4a-hydroxyoctahydro-2H-chromen-2-yl)pyridin-3-yl)-6-phenylpyrazine-2-carboxamide], the EC50 in experiment [1] was found to be 70 nM. The values for the IC50 on FLT3D835Y kinase and at PIM2 were 1.4 nM and 89.2 nM, respectively.
Take `Nc1ncc(-c2ccccc2)nc1C(=O)Nc1cnccc1[C@H]1C[C@@H](N)[C@H]2CCC[C@H]2O1` [Example 199, 3-amino-N-(4-((2R,4R,4aR,7aR)-4-aminooctahydrocyclopenta[b]pyran-2-yl)pyridin-3-yl)-6-phenylpyrazine-2-carboxamide]: in experiment [1], the EC50 was 590 nM. Moreover, the IC50 amounted to 1.8 nM on FLT3D835Y kinase and 102 nM on PIM2.
For `C[C@H]1O[C@@H](c2ccncc2NC(=O)c2ccc(F)c(-c3c(F)cccc3F)n2)C[C@@H](N)[C@]1(C)O` [Example 219, N-(4-((2R,4R,5S,6R)-4-amino-5-hydroxy-5,6-dimethyltetrahydro-2H-pyran-2-yl)pyridin-3-yl)-6-(2,6-difluorophenyl)-5-fluoropicolinamide] the same measures were 420 nM, 1700 nM and 8.5 nM.
For the compound `CC(C)(C)[C@@H]1O[C@H](c2ccncc2NC(=O)c2nc(-c3ccccc3)cnc2N)C[C@@H](N)[C@H]1O` [Example 227, 3-amino-N-(4-((2S,4R,5R,6S)-4-amino-6-tert-butyl-5-hydroxytetrahydro-2H-pyran-2-yl)pyridin-3-yl)-6-phenylpyrazine-2-carboxamide], the EC50 in experiment [1] came out at 5310 nM. Also, the IC50 turned out to be 140 nM at FLT3D835Y kinase and 549 nM on PIM2.
Taken in the same sequence, the figures for `C[C@H]1O[C@@H](c2ccncc2NC(=O)c2nc(-c3ccccc3)cnc2N)C[C@@H](N)[C@]1(C)O` [Example 228, 3-amino-N-(4-((2R,4R,5S,6R)-4-amino-5-hydroxy-5,6-dimethyltetrahydro-2H-pyran-2-yl)pyridin-3-yl)-6-phenylpyrazine-2-carboxamide] were 2060 nM, 2.7 nM and 120 nM.
As for `C[C@@H]1O[C@H](c2ccncc2NC(=O)c2nc(-c3ccccc3)cnc2N)C[C@H](N)[C@@]1(C)O` [Example 229, 3-amino-N-(4-((2S,4S,5R,6S)-4-amino-5-hydroxy-5,6-dimethyltetrahydro-2H-pyran-2-yl)pyridin-3-yl)-6-phenylpyrazine-2-carboxamide], in experiment [1], the EC50 was 5870 nM. Moreover, the IC50 on FLT3D835Y kinase came out at 93 nM; on PIM2, 3310 nM.
Taken in the same sequence, the figures for `Nc1ncc(-c2ccccc2)nc1C(=O)Nc1cnccc1[C@@H]1C[C@H](N)[C@@H]2CCC[C@@H]2O1` [Example 233, 3-amino-N-(4-((2S,4S,4aS,7aS)-4-aminooctahydrocyclopenta[b]pyran-2-yl)pyridin-3-yl)-6-phenylpyrazine-2-carboxamide] were 100 nM, 160 nM and 5140 nM.
Take `CC(C)[C@@H]1O[C@H](c2ccncc2NC(=O)c2nc(-c3ccccc3)cnc2N)C[C@H](N)[C@H]1O` [Example 240, 3-amino-N-(4-((2S,4S,5R,6S)-4-amino-5-hydroxy-6-isopropyltetrahydro-2H-pyran-2-yl)pyridin-3-yl)-6-phenylpyrazine-2-carboxamide]: the EC50 in experiment [1] turned out to be 380 nM. Further, the IC50 on FLT3D835Y kinase amounted to 1200 nM; on PIM2, 2770 nM.
With `CC(C)[C@@H]1C[C@H](N)C[C@H](c2ccncc2NC(=O)c2nc(-c3ccccc3)cnc2N)O1` [Example 291, 3-amino-N-(4-((2R,4S,6S)-4-amino-6-isopropyltetrahydro-2H-pyran-2-yl)pyridin-3-yl)-6-phenylpyrazine-2-carboxamide], the 50% effective concentration (EC50) in experiment [1] amounted to 340 nM. In addition, the IC50 at FLT3D835Y kinase turned out to be 5.3 nM; on PIM2, 19.3 nM.

As usually defined, the EC50 is the concentration giving half of the maximal effect. What is called IC50 is the concentration that inhibits the measured activity by half.

Source of the values: patent US20130109682A1, “CYCLIC ETHER COMPOUNDS USEFUL AS KINASE INHIBITORS” (NOVARTIS AG, priority 2010, published 2013).
